Assay in all cases: relative viability (nuclei count vs DMSO), 5 days (fraction); higher = more cells survive
Compound in test [1]: CCN1CCC(CC1)N2C=C(N=N2)CNC3=CC4=C(C(=CN=C4C(=C3)Cl)C#N)NC5=CC(=C(C=C5)F)Cl [KIN001-266] + CC(=O)Nc1cccc(-n2c(=O)n(C3CC3)c(=O)c3c(Nc4ccc(I)cc4F)n(C)c(=O)c(C)c32)c1 [Trametinib] (partner 0.02 µM)
The procedure, abridged:
(§1)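 Values are medians from duplicate plates. Each reflects relative viability, defined as the nuclei count of treated wells over that of vehicle wells. Lung cancer cell lines in 1536-well plates were pin-tool dosed one day after seeding with one drug alone or with a fixed anchor-drug dose plus five library-drug doses (not always all listed) in √10 steps, then fixed, stained and imaged at 4× after 5 days.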

Compound in test [2]: CCN1CCC(CC1)N2C=C(N=N2)CNC3=CC4=C(C(=CN=C4C(=C3)Cl)C#N)NC5=CC(=C(C=C5)F)Cl [KIN001-266] + C[C@]1(O)C[C@@H](c2nc(-c3ccc4ccc(-c5ccccc5)nc4c3)c3c(N)nccn32)C1 [Linsitinib] (partner 1 µM)
In short, it runs like this:
as §1

Compound in test [3]: CCN1CCC(CC1)N2C=C(N=N2)CNC3=CC4=C(C(=CN=C4C(=C3)Cl)C#N)NC5=CC(=C(C=C5)F)Cl [KIN001-266] + CS(=O)(=O)CCNCc1ccc(-c2ccc3ncnc(Nc4ccc(OCc5cccc(F)c5)c(Cl)c4)c3c2)o1 [Lapatinib] (partner 2 µM)
The procedure, abridged: as §1

Compound in test [4]: CCN1CCC(CC1)N2C=C(N=N2)CNC3=CC4=C(C(=CN=C4C(=C3)Cl)C#N)NC5=CC(=C(C=C5)F)Cl [KIN001-266] + COc1cccc2cc(-c3nc([C@H]4CC[C@H](C(=O)O)CC4)n4ncnc(N)c34)[nH]c12 [OSI-027] (partner 0.5 µM)
The procedure, abridged: as §1

This is an account of results in the supplement of paper PMC10307832.

As for NCI-H322M, the relative viability in test [1] (first compound 0.08 µM) turned out to be 0.487; in test [1] (first compound 0.253 µM), 0.515; in test [1] (first compound 0.8 µM), 0.5; in test [1] (first compound 2.53 µM), 0.479; in test [1] (first compound 8 µM) it was 0.497; in test [2] (first compound 0.08 µM), 0.957. Moreover, the relative viability was 0.987 in test [2] (first compound 0.253 µM); 0.897 in test [2] (first compound 0.8 µM); 0.855 in test [2] (first compound 2.53 µM); 0.83 in test [2] (first compound 8 µM); 0.575 in test [3] (first compound 0.08 µM); 0.604 in test [3] (first compound 0.253 µM). Also, the relative viability in test [3] (first compound 0.8 µM) was 0.601; in test [3] (first compound 2.53 µM), 0.57; in test [3] (first compound 8 µM), 0.489; in test [4] (first compound 0.08 µM) it was 0.56; in test [4] (first compound 0.253 µM), 0.598; in test [4] (first compound 0.8 µM) it was 0.593. The relative viability in test [4] (first compound 2.53 µM) is 0.458; in test [4] (first compound 8 µM), 0.579.

Turning to NCI-H358, the relative viability in test [1] (first compound 0.08 µM) came to 0.174; in test [1] (first compound 0.253 µM), 0.17; in test [1] (first compound 0.8 µM), 0.138; in test [1] (first compound 2.53 µM) it was 0.115; in test [1] (first compound 8 µM), 0.117; in test [2] (first compound 0.08 µM), 0.695. In addition, the relative viability came to 0.628 in test [2] (first compound 0.253 µM); 0.821 in test [2] (first compound 0.8 µM); 0.667 in test [2] (first compound 2.53 µM); 0.33 in test [2] (first compound 8 µM); 0.493 in test [3] (first compound 0.08 µM); 0.497 in test [3] (first compound 0.253 µM). In addition, the relative viability in test [3] (first compound 0.8 µM) was 0.483; in test [3] (first compound 2.53 µM) it was 0.407; in test [3] (first compound 8 µM) it was 0.372; in test [4] (first compound 0.08 µM) it was 0.79; in test [4] (first compound 0.253 µM), 0.72; in test [4] (first compound 0.8 µM), 0.997. Also, the relative viability was 0.903 in test [4] (first compound 2.53 µM) and 0.596 in test [4] (first compound 8 µM).

Regarding NCI-H460, the relative viability in test [1] (first compound 0.08 µM) came to 0.204; in test [1] (first compound 0.253 µM) it was 0.225; in test [1] (first compound 0.8 µM), 0.121; in test [1] (first compound 2.53 µM), 0.135; in test [1] (first compound 8 µM), 0.108; in test [2] (first compound 0.08 µM) it was 0.673. The relative viability in test [2] (first compound 0.253 µM) worked out at 0.853; in test [2] (first compound 0.8 µM) it was 0.899; in test [2] (first compound 2.53 µM), 0.762; in test [2] (first compound 8 µM), 0.539; in test [3] (first compound 0.08 µM), 0.891; in test [3] (first compound 0.253 µM), 0.933. Further, the relative viability in test [3] (first compound 0.8 µM) is 1.13; in test [3] (first compound 2.53 µM) it was 1; in test [3] (first compound 8 µM) it was 0.954; in test [4] (first compound 0.08 µM) it was 0.623; in test [4] (first compound 0.253 µM) it was 0.667; in test [4] (first compound 0.8 µM) it was 0.781. In addition, the relative viability in test [4] (first compound 2.53 µM) is 0.605; in test [4] (first compound 8 µM) it was 0.574.

In the case of NCI-H520, the relative viability in test [1] (first compound 0.08 µM) amounted to 0.727; in test [1] (first compound 0.253 µM), 0.628; in test [1] (first compound 0.8 µM), 0.561; in test [1] (first compound 2.53 µM) it was 0.624; in test [1] (first compound 8 µM), 0.645; in test [2] (first compound 0.08 µM), 1.01. The relative viability in test [2] (first compound 0.253 µM) turned out to be 0.969; in test [2] (first compound 0.8 µM), 1.06; in test [2] (first compound 2.53 µM), 0.769; in test [2] (first compound 8 µM) it was 0.894; in test [3] (first compound 0.08 µM) it was 0.899; in test [3] (first compound 0.253 µM) it was 0.85. The relative viability in test [3] (first compound 0.8 µM) is 1.02; in test [3] (first compound 2.53 µM), 0.718; in test [3] (first compound 8 µM) it was 0.886; in test [4] (first compound 0.08 µM) it was 0.232; in test [4] (first compound 0.253 µM), 0.351; in test [4] (first compound 0.8 µM), 0.278. The relative viability in test [4] (first compound 2.53 µM) was 0.235; in test [4] (first compound 8 µM) it was 0.297.
